Data: ChEMBL document CHEMBL4699531, “Defining the Familial Fold of the Vicilin-Buried Peptide Family” (J Nat Prod, 2020)
Active and inactive are the calls of the source. No cut-off for these calls is given here. Bridge positions count the residues as written; N and C are the ends. Square brackets hold non-standard residues; d marks the D form. Peptide text beside a SMILES is read from it. pGlu = O=C1CC[C@@H](C(=O)O)N1

Experiments:
[1] = Inhibition of bovine pancreas trypsin using N-alpha-benzoyl-L-arginine-pnitroanilide substrate preincubated for 15 mins followed by substrate addition and measured after 30 mins; assay type: tissue-based, Bos taurus
[2] = organism: Bos taurus; experiment: Inhibition of bovine pancreas trypsin at 0.01 to 8 uM using N-alpha-benzoyl-L-arginine-pnitroanilide substrate preincubated for 15 mins followed by substrate addition and measured after 30 mins; assay type: tissue-based; settings: dose microM 0.01-8, time 45.0 min

Row | IC50 [1] [nM] | SMILES | inhibition [2]
1 | 400 | CSCC[C@@H]1NC(=O)[C@H](C(C)C)NC(=O)[C@H](CCCCN)NC(=O)[C@@H](NC(=O)[C@H](CCC(N)=O)NC(=O)[C@H](CCC(=O)O)NC(=O)[C@@H]2CCCN2C(=O)[C@H](CC(=O)O)NC(=O)[C@@H](NC(=O)[C@@H](N)CC(N)=O)[C@@H](C)O)CSSC[C@@H](C(=O)N[C@@H](CCC(=O)O)C(=O)N[C@@H](CCCCN)C(=O)N[C@@H](CCC(=O)O)C(=O)N[C@@H](Cc2c[nH]cn2)C(=O)N[C@@H](CC(=O)O)C(=O)O)NC(=O)[C@H](CCC(N)=O)NC(=O)[C@H](CC(=O)O)NC(=O)[C@H](CC(C)C)NC(=O)[C@@H]2CSSC[C@H](NC1=O)C(=O)N[C@@H](Cc1ccc(O)cc1)C(=O)N[C@@H](C)C(=O)N[C@@H](CCC(N)=O)C(=O)N[C@@H](CCCNC(=N)N)C(=O)N[C@@H](Cc1c[nH]cn1)C(=O)N[C@@H](CO)C(=O)N[C@@H](CO)C(=O)N1CCC[C@H]1C(=O)N[C@@H](CCC(=O)O)C(=O)N[C@@H](CC(C)C)C(=O)N[C@@H](CC(C)C)C(=O)N[C@@H](CCCNC(=N)N)C(=O)N[C@@H](CCCNC(=N)N)C(=O)N2 (H-NTDPEQCKVMCYAQRHSSPELLRRCLDQCEKEHD-OH; disulfide 7-29, 11-25) | –
2 | – | CC[C@H](C)[C@H](NC(=O)[C@H](CCC(N)=O)NC(=O)[C@H](CCCNC(=N)N)NC(=O)[C@H](CCCCN)NC(=O)[C@@H]1CCCN1)C(=O)N[C@@H](CCC(=O)O)C(=O)N[C@@H](CCCNC(=N)N)C(=O)N[C@H]1CSSC[C@@H](C(=O)N[C@@H](CCC(=O)O)C(=O)N[C@@H](CCC(=O)O)C(=O)N[C@@H](CCC(N)=O)C(=O)N[C@@H](CCC(=O)O)C(=O)N[C@@H](CCC(=O)O)C(=O)N[C@@H](CCCCN)C(=O)N[C@@H](CCCNC(=N)N)C(=O)NCC(=O)N[C@@H](CCC(N)=O)C(=O)NCC(=O)N[C@@H](CC(=O)O)C(=O)O)NC(=O)[C@H](CCC(N)=O)NC(=O)[C@H](CCCNC(=N)N)NC(=O)[C@H](C(C)C)NC(=O)[C@@H]2CSSC[C@H](NC(=O)[C@H](CCC(=O)O)NC(=O)[C@H](CCC(N)=O)NC(=O)[C@H](CCCCN)NC1=O)C(=O)N[C@@H](CCCNC(=N)N)C(=O)N[C@@H](CCC(=O)O)C(=O)N[C@@H](CO)C(=O)N[C@@H](CCCNC(=N)N)C(=O)N[C@@H](CCC(N)=O)C(=O)NCC(=O)N[C@@H](CCC(=O)O)C(=O)N[C@@H](CCC(N)=O)C(=O)N[C@@H](CCC(N)=O)C(=O)N[C@@H](CCC(=O)O)C(=O)N[C@@H](CCCNC(=N)N)C(=O)N[C@@H](CCC(N)=O)C(=O)N2 (H-PKRQIERCKQECRESRQGEQQERQCVRQCEEQEEKRGQGD-OH; disulfide 8-29, 12-25) | inactive
3 | – | CC[C@H](C)[C@H](NC(=O)[C@H](CCC(=O)O)NC(=O)[C@@H](NC(=O)[C@H](CCC(=O)O)NC(=O)[C@H](CCCCN)NC(=O)[C@@H]1CCC(=O)N1)[C@@H](C)O)C(=O)N[C@H]1CSSC[C@@H](C(=O)N[C@@H](CCC(=O)O)C(=O)N[C@@H](CCC(=O)O)C(=O)N[C@@H](CCCNC(=N)N)C(=O)N[C@@H](CC(C)C)C(=O)N[C@@H](CCCNC(=N)N)C(=O)N[C@@H](CC(=O)O)C(=O)O)NC(=O)[C@H](CCC(=O)O)NC(=O)[C@H](CCC(N)=O)NC(=O)[C@H](CCC(N)=O)NC(=O)[C@@H]2CSSC[C@H](NC(=O)[C@H](Cc3c[nH]c4ccccc34)NC(=O)[C@H](CCC(N)=O)NC(=O)[C@H](CCCNC(=N)N)NC1=O)C(=O)N[C@@H](CCC(N)=O)C(=O)N[C@@H](C(C)C)C(=O)N[C@@H](CCSC)C(=O)N[C@@H](CCCCN)C(=O)N1CCC[C@H]1C(=O)N[C@@H](CCC(N)=O)C(=O)NCC(=O)NCC(=O)N[C@@H](CCC(=O)O)C(=O)N[C@@H](CCC(=O)O)C(=O)N[C@@H](CCC(N)=O)C(=O)N[C@@H](CCCNC(=N)N)C(=O)N[C@@H](CCCNC(=N)N)C(=O)N2 ([pGlu]KETEICRQWCQVMKPQGGEEQRRCQQECEERLRD-OH; disulfide 7-29, 11-25) | inactive
